The assay addresses DNA-(apurinic or apyrimidinic site) endonuclease (Homo sapiens, UniProt P27695). Put plainly: Fluorescence-Based APE1 Endonuclease Activity Assay. The conditions noted are these: pH 7.5. The protocol: In this assay, the complementary single-stranded oligonucleotides at […] were mixed at a 1:1 ratio and annealed in assay buffer (50 mm Tris pH 7.5, 25 mm NaCl, 2 mm MgCl2, 1 mm DTT, 0.01% Tween-20) at 95 °C for 5 min to generatethe double-stranded substrate of APE1.[A. Simeonov, A. Kulkarni, D. Dorjsuren, A. Jadhav, M. Shen, D. R. McNeill, C. P. Austin, D. M. Wilson 3rd, PLoS ONE 2009, 4, p. e5740.] After the annealing, the reaction mixture was allowed to cool to room temperature. The assay was carried out in 96-well black plates with flat bottom (Costar, Corning Inc., NY, USA) at a finalreaction volume of 100 μL. The reaction mixtures containing 2.5 U of human recombinant APE1 (6 μL) (New England Biolabs, Ipswich, MA, USA) were incubated in the assay buffer abovementioned, in the absence or presence of the putative APE1 inhibitors (5 μL), at room temperature for 15 min. The reaction was initiated by the addition of double-stranded substrate (6 μL) to obtain the final concentration of 250 nm. DMSO was maintained at a concentration of 0.5% (v/v) in all assays (negative control). Fluorescence readings were acquired at 1-min intervals over an incubation period of 30 min at 37 °C using a SpectraMax Gemini EM microplate plate reader (Molecular Devices, Berkshire, UK) in the kinetic mode at excitation wavelength 550 nm, emission wavelength 584 nm, and cutoff at 570 nm.

As usually defined, the IC50 is the midpoint of a concentration-inhibition curve.

Where a name gives a salt, the structure may show the parent alone.

Chain of DNA-(apurinic or apyrimidinic site) endonuclease (P27695 whole entry): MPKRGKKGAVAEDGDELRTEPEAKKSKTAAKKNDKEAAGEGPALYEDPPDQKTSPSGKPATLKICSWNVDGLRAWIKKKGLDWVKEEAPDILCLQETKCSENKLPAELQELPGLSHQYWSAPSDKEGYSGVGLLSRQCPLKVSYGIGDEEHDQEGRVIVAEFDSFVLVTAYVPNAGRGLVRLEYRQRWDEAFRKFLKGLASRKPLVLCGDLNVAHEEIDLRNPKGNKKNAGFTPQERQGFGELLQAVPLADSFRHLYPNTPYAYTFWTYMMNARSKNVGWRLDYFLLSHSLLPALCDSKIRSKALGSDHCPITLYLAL

The molecule `Nc1ccc2cc(S(=O)(=O)O)cc(O)c2c1/N=N/c1ccc([N+](=O)[O-])cc1S(=O)(=O)O` [6-amino-4-hydroxy-5-[(4-nitro-2-sulfophenyl)azo]-2-naphtalenesulfonic acid disodium salt (Compound 37)] registered an IC50 of 7.76 µM.

As to `Nc1ccc(/N=N/c2c(N)ccc3cc(S(=O)(=O)O)cc(O)c23)c(S(=O)(=O)O)c1` [6-amino-5-[(4-amino-2-sulfophenyl)azo]-4-hydroxy-2-naphtalenesulfonic acid disodium salt (Compound 41)], half-maximal inhibition (IC50) was put at 8.85 µM.

Turning to `CC(=O)Nc1ccc(/C=C/c2ccc(N=C=S)c(S(=O)(=O)O)c2)c(S(=O)(=O)O)c1` [(5-(acetylamino)-2-[2-(4-isothiocyanato-3-sulfophenyl)ethenyl]benzenesulfonic acid disodium salt (Compound 22)], the IC50 was found to be 0.25 µM.

(Values after BindingDB's records for doi:10.1111/cbdd.12826 (Universidade De Lisboa, 2016).)
